In US8642611B2, “Alkynylpyrimidines and salts thereof, pharmaceutical compositions comprising same, methods of preparing same and uses of same” (Bayer Intellectual Property GmbH, priority 2007, dated 2014):
pIC50: −log10 of the molar value.

How the values were obtained:
MVECs = assay: VEGF-Stimulated Endothelial Cell Proliferation Assay; format: cell-based; details: 72 h, 3 days, Alamar Blue, read-out: EC proliferation (assay 5)
Experimental: Assay 5: VEGF-Stimulated Endothelial Cell Proliferation Assay
MVECs are plated to collagen coated 48 well plates at a density of 30 000 cells per well in Earles's Medium M199 (complete with serum). After 4 h the medium is exchanged for medium containing 2% human serum without growth factors (200 μl) and cells are maintained overnight at low serum conditions. The other day the medium is exchanged for the same low serum medium containing in addition test compounds or vehicle in the appropriate concentrations using appropriate controls is exchanged. Five minutes later low serum medium containing 40 ng/ml VEGF is added (200 μl). Cells are cultured for 3 days before mixing with Alamar Blue® (dilution factor of 1: 20) and incubating it for 2 h at 37° C. Measurement of fluorescence intensity is done with the following filters: 528/25 Excitation, 590/35 Emission for the determination of the IC50 concentrations.
Culture Medium Composition
Earle's Medium 199 with stable Glutamine (PAA)+5 ml PenStrep (100×; 10000 Units/10 mg/ml) (PAA)+5 ml Non Essential Amino Acids (100×; without L-Glutamine) (PAA)+5 ml Sodium Pyruvat (100 mM) (PAA)+50 ml FCS (PAA)+50 ml HS+1 ml ECGS in Dulbecco's PBS without Ca2++Mg2+(5 mg/ml) (Sigma)+1 ml Heparin (2500 Units/ml)+2.5 ml Biotect-Protection medium (Biochrom AG)=complete Earle's M 199 medium
Earle's Medium 199 (PAA) with stable Glutamine+5 ml PenStrep (100×; 10000 Units/10 mg/ml) (PAA)+5 ml Non Essential Amino Acids (100×; without L-Glutamine) (PAA)+5 ml Sodium Pyruvat (100 mM) (PAA), 2% HS+2.5 ml Biotect- Protection medium (Biochrom AG)

Tie2 = Tie2 (Homo sapiens, UniProt Q02763); assay: Tie2 ELISA assay (cellular Tie2 autophosphorylation, angiopoietin-2 stimulated); format: cell-based; set-up: expressed in transfected cells; host or cells: CHO (DHFR-deficient), stably transfected with Tie2; details: CHO cells stably transfected with Tie2, stimulated by angiopoietin-2; Tie2 autophosphorylation by sandwich-ELISA; read-out: Tie2 activity (assay 1)
Experimental: Assay 1: Tie2 ELISA Assay
Cellular activity of compounds of the present invention as inhibitors of Tie2 kinase activity was measured employing a Tie2 ELISA assay as described in the following paragraphs. Herein CHO cell-cultures, which are stably transfected by known techniques with Tie2 using DHFR deficiency as selection marker, are stimulated by angiopoietin-2. The specific autophosphorylation of Tie2 receptors is quantified with a sandwich-ELISA using anti-Tie2 antibodies for catch and anti-phosphotyrosine antibodies coupled to HRP for detection.
• 96well tissue culture plate, sterile, Greiner • 96well FluoroNunc plate MaxiSorp Surface C, Nunc • 96well plate polypropylene for compound dilution in DMSO • CHO Tie2/DHFR (transfected cells) • PBS−; PBS++, DMSO • MEM alpha Medium with Glutamax-I without Ribonucleosides and • Deoxyribonucleosides (Gibco #32561-029) • with 10% FCS after dialysis! and 1% PenStrep • Lysis buffer: 1 Tablet “Complete” protease inhibitor • 1 cap Vanadate (1 mL>40 mg/mL; working solution 2 mM) • ad 50 mL with Duschl-Puffer • pH 7.6 • Anti-Tie2-antibody 1: 425 in Coating Buffer pH 9.6 • Stock solution: 1.275 mg/mL>working.: 3 μg/mL • PBST: 2 bottles PBS(10×)+10 ml Tween, fill up with VE-water • RotiBlock 1: 10 in VE-water • Anti-Phosphotyrosine HRP-Conjugated 1: 10000 in 3% TopBlock • 3% TopBlock in PBST • BM Chemiluminescence ELISA Substrate (POD) • solution B 1: 100 solution A • SF9 cell culture medium • Ang2-Fc in SF9 cell culture medium Cell Experiment: • Dispense 5×10^4 cells/well/98 μL in 96well tissue culture plate • Incubate at 37° C./5% CO2 • After 24 h add compounds according to desired concentrations • Add also to control and stimulated values without compounds 2 μL DMSO • And mix for a few min at room temperature • Add 100 μL Ang2-Fc to all wells except control, which receives insect medium • Incubate 20 min at 37° C. • Wash 3× with PBS++ • Add 100 μl Lysis buffer/well and shake a couple of min at room temperature • Store lysates at […] before utilizing for the ELISA Performance of Sandwich-ELISA • Coat 96well FluoroNunc Plate MaxiSorp Surface C with anti-Tie2 mAb 1: 425 in Coating buffer pH 9.6; 100 μL/well overnight at 4° C. • Wash 2× with PBST • Block plates with 250 μL/well RotiBlock 1: 10 in VE-water • Incubate for 2 h at room temperature or overnight at 4° C. shaking • Wash 2× in PBST • Add thawed lysates to wells and incubate overnight shaking at 4° C. • Wash 2× with PBST • Add 100 μL/well anti-Phosphotyrosine HRP-Conjugated 1:10000 in 3% TopBlock (3% TopBlock in PBST) and incubate overnight under shaking • Wash 6× with PBST • Add 100 μL/well BM Chemiluminescence ELISA Substrate (POD) • solutions 1 und 2 (1:100) • Determine luminescence with the LumiCount. Assay 2: Tie-2-Kinase HTRF-Assay without kinase preactivation

Sequence of Tie2 (Q02763 23-1124): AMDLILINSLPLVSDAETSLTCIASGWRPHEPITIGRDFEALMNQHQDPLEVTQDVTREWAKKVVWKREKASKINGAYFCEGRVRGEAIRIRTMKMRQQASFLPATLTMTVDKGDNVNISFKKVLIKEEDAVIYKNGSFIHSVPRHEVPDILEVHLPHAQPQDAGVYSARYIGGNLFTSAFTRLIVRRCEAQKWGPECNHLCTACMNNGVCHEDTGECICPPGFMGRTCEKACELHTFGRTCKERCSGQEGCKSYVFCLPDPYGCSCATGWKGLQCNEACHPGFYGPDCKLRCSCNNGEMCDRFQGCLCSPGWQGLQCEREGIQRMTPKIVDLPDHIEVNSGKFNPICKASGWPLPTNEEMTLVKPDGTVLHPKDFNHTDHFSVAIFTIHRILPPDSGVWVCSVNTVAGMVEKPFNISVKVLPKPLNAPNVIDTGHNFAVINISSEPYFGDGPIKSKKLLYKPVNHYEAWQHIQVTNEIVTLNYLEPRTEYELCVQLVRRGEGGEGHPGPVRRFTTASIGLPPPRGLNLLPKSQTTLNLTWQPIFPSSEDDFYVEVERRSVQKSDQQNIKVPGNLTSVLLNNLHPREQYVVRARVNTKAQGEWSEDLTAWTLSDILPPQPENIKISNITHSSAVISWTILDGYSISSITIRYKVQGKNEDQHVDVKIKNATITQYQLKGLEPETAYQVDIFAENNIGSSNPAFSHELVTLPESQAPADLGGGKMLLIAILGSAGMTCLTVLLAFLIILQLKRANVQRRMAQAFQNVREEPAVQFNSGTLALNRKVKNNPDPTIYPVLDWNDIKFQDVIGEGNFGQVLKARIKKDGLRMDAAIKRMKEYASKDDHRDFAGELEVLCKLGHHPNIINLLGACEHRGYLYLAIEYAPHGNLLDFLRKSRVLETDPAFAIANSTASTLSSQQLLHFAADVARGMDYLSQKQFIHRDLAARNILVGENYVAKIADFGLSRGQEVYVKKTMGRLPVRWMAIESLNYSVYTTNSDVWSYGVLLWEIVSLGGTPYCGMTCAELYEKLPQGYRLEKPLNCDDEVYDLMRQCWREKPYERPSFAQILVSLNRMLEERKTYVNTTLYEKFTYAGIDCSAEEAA

## Cc1ccccc1C#Cc1cnc(Nc2ccc(S(C)(=N)=O)cc2)nc1N[C@H](C)CO (mixture of isomers) [Example 1.3]
MVECs
  pIC50: > 6.30
Tie2
  pIC50: > 6.30

## C[C@H](CO)Nc1nc(Nc2cccc(S(C)(=N)=O)c2)ncc1C#Cc1cccc(O)c1 (mixture of isomers) [Example 1.18, (RS)-S-(3-[4-((R)-2-Hydroxy-1-methyl-ethylamino)-5-(3-hydroxy-phenylethynyl)-pyrimidin-2-ylamino]-phenyl)-S-methylsulfoximide]
MVECs
  pIC50: > 6.30
Tie2
  pIC50: > 6.30

## C[C@H](CO)Nc1nc(Nc2ccc(S(C)(=N)=O)cc2)ncc1C#Cc1ccc(F)cc1 (mixture of isomers) [Example 1.9, (RS)-S-(4-[5-(4-Fluoro-phenyl-ethynyl)-4-((R)-2-hydroxy-1-methyl-ethylamino)-pyrimidin-2-ylamino]-phenyl)-S-methylsulfoximide]
MVECs
  pIC50: > 6.30
Tie2
  pIC50: > 6.30

## CCc1ccc(C#Cc2cnc(Nc3ccc(S(C)(=N)=O)cc3)nc2N[C@H](C)CO)cc1 (mixture of isomers) [Example 1.8, (RS)-S-(4-[5-(4-Ethyl-phenylethynyl)-4-((R)-2-hydroxy-1-methyl-ethylamino)-pyrimidin-2-ylamino]-phenyl)-S-methylsulfoximide]
Tie2
  pIC50: > 6.30

## C[C@H](CO)Nc1nc(Nc2ccc(S(C)(=N)=O)cc2)ncc1C#Cc1ccccc1 (mixture of isomers) [Example 1.2, (RS)-S-(4-[4-((R)-2-Hydroxy-1-methyl-ethylamino)-5-(phenylethynyl)-pyrimidin-2-ylamino]-phenyl)-S-methylsulfoximide]
MVECs
  pIC50: > 6.30
Tie2
  pIC50: > 6.30

## CCOC(=O)N=S(C)(=O)c1ccc(Nc2ncc(C#Cc3cccc(O)c3)c(N[C@H](C)CO)n2)cc1 (mixture of isomers) [Example 2.7]
MVECs
  pIC50: > 6.30
Tie2
  pIC50: > 6.30

## CS(=N)(=O)c1cccc(Nc2ncc(C#Cc3cccc(O)c3)cn2)c1 (racemic) [Example 4.2, (RS)—S-(3-[5-(3-hydroxy-phenylethynyl)-pyrimidin-2-ylamino]-phenyl)-S-methylsulfoximide]
Tie2
  pIC50: > 6.30

## COc1ccc(C#Cc2cnc(Nc3cccc(S(C)(=N)=O)c3)nc2N[C@H](C)CO)cc1 (mixture of isomers) [Example 1.17, (RS)-S-(3-[4-((R)-2-Hydroxy-1-methyl-ethylamino)-5-(4-methoxy-phenylethynyl)-pyrimidin-2-ylamino]-phenyl)-S-methylsulfoximide]
Tie2
  pIC50: > 6.30

## CCNc1nc(Nc2ccc(S(C)(=N)=O)cc2)ncc1C#Cc1ccc(F)c(C)c1 (racemic) [Example 1.24, (RS)-S-(4-[4-ethylamino-5-(4-fluoro-3-methyl-phenyl-ethynyl)-pyrimidin-2-ylamino]-phenyl)-S-methylsulfoximide]
Tie2
  pIC50: > 6.30

## Cc1ccccc1C#Cc1cnc(Nc2cccc(S(C)(=N)=O)c2)nc1N[C@H](C)CO (mixture of isomers) [Example 1.19, (RS)-S-(3-[4-((R)-2-Hydroxy-1-methyl-ethylamino)-5-(2-methyl-phenylethynyl)-pyrimidin-2-ylamino]-phenyl)-S-methylsulfoximide]
MVECs
  pIC50: > 6.30
Tie2
  pIC50: > 6.30

## CCNc1nc(Nc2ccc(S(C)(=N)=O)cc2)ncc1C#Cc1ccc(OC)cc1 (racemic) [Example 1.26, (RS)-S-(4-[4-ethylamino-5-(4-methoxy-phenyl-ethynyl)-pyrimidin-2-ylamino]-phenyl)-S-methylsulfoximide]
Tie2
  pIC50: > 6.30

## Cc1cc(C#Cc2cnc(Nc3cccc(S(C)(=N)=O)c3)nc2N[C@H](C)CO)ccc1F (mixture of isomers) [Example 1.20, (RS)-S-(3-[5-(4-Fluoro-3-methyl-phenyl-ethynyl)-4-((R)-2-hydroxy-1-methyl-ethylamino)-pyrimidin-2-ylamino]-phenyl)-S-methylsulfoximide]
MVECs
  pIC50: > 6.30
Tie2
  pIC50: > 6.30

## Cc1cc(C#Cc2cnc(Nc3ccc(S(C)(=N)=O)cc3)nc2N[C@H](C)CO)ccc1F (mixture of isomers) [Example 1.13, (RS)-S-(4-[5-(4-Fluoro-3-methyl-phenyl-ethynyl)-4-((R)-2-hydroxy-1-methyl-ethylamino)-pyrimidin-2-ylamino]-phenyl)-S-methylsulfoximide]
MVECs
  pIC50: > 6.30
Tie2
  pIC50: > 6.30

## COc1ccc(C#Cc2cnc(Nc3ccc(S(C)(=N)=O)cc3)nc2N[C@H](C)CO)cc1 (mixture of isomers) [Example 1.1, (RS)—S-(4-[4-((R)-2-Hydroxy-1-methyl-ethylamino)-5-(4-methoxy-phenylethynyl)-pyrimidin-2-ylamino]-phenyl)-S-methylsulfoximide]
MVECs
  pIC50: > 6.30
Tie2
  pIC50: > 6.30

## Cc1ccc(C#Cc2cnc(Nc3ccc(S(C)(=N)=O)cc3)nc2N[C@H](C)CO)cc1 (mixture of isomers) [Example 1.5]
MVECs
  pIC50: > 6.30
Tie2
  pIC50: > 6.30

## CC(C)NC(=O)N=S(C)(=O)c1cccc(Nc2ncc(C#Cc3cccc(O)c3)c(N[C@H](C)CO)n2)c1 (mixture of isomers) [Example 1.15, (RS)-S-(3-[4-((R)-2-Hydroxy-1-methyl-ethylamino)-5-(3-hydroxy-phenylethynyl)-pyrimidin-2-ylamino]-phenyl)-N-(isopropylcarbamoyl)-S-methylsulfoximide]
Tie2
  pIC50: > 6.30
